The test system of data set [1] is HCT116 MTAP-deleted cell lines. Kind of data set: Cell viability assay (CellTitre-Glo), HCT116 MTAP-deleted. Conditions: for CC50: Homo sapiens, HCT-116, 168 h, HCT116 MTAP-deleted cells, 7 days of treatment, CTG luminescence, read-out: MTAP^del HCT116 CC50; for Selectivity: WT HCT116 CC50 versus MTAP^del HCT116 CC50. The class given is cell-based. The method, then: (§1) Control compounds were analyzed in parallel each time for quality control.
(§2) In Brief, on Day-1, a serial dilution of stock compounds in DMSO was performed using BioMek liquid handlers and dispensed using Echo acoustic dispenser into 384 well plates. Both tool compounds and sample compounds were spotted in the same plate for a dose response of PRMT5 inhibitors. Compound plates were stored as frozen until the cells were ready for seeding.
(§3) On Day 0, 100 HCT WT or HCT116 MTAP-deleted cells were seeded in compound-containing 384 well plates (50 μl per well) in RPMI 1640 media supplemented with 10% heat inactivated fetal bovine serum, Glutamax and penicillin streptomycin using EL460 liquid dispenser 5 μl cassette (BioTek, part no. 7170011). After equilibrating the plate in room temperature, the cells were incubated for 7 days inside the sealed incubator set at 37° C. with […] and 5% CO2.
(§4) On Day 7, the viability of cells was measured using a CTG assay kit (CellTitre-Glo; Promega cat no. G7573). Shortly, 40 μl per well of luminescent cell viability assay reagent were dispensed using EL460 liquid dispenser 5 μl cassette. CTG luminescence signal was measured using an EnVision plate reader (PerkinElmer) in accordance with manufacturer's instruction. The CC50 values for each compound after 7 days of treatment were calculated using 4 parameter non-linear logistical curve fit.

Data set [2] can be described thus: Cell viability assay (CellTitre-Glo), HCT116 WT. To be noted: human; HCT116 WT cells, 7 days of treatment, CTG luminescence. The class given is cell-based. On the procedure: as §1, §2, §3, §4
A short description of data set [3]: MDR1/BCRP assay: permeability in cPgp-KO-MDCK-WT cells. The class given is in vitro ADME. Conditions: dog, test compounds at 1 μM, 2-hour time point, pH 7.4. On the procedure: (§5) cPgp-KO-MDCK-WT, cPgp-KO-MDR1-KI, and cPgp-KO—BCRP—KI cells (all from Sigma) were cultured in Dulbecco's Modification of Eagle's Medium (DMEM) with 4.5 g/L glucose, sodium pyruvate, and GlutaMAX (Gibco) supplemented with 1% Pen/Strep and 10% fetal bovine serum. The cells were maintained in an incubator at 37° C., 90% humidity, and 5% CO2 until reaching confluence over 5 days in 96-well transwell plates. Experiments were conducted using an HBSS donor buffer (Invitrogen) containing 10 mM HEPES and 15 mM glucose, adjusted to pH 7.4. The receiver well contained HBSS buffer supplemented with 1% BSA, 10 mM HEPES, and 15 mM glucose, and the pH was adjusted to 7.4. TEER values were measured to assess membrane integrity after an initial equilibration with BSA-free transport buffer for 15 minutes. The experiment was started by adding dosing solutions containing test compounds at 1 μM. Cells were dosed on the apical (A) side or basolateral (B) side at 100 μl and 200 μl, respectively, to determine forward (A to B) and reverse (B to A) permeability. At the 2-hour time point, 50 μl samples were collected from the receiver compartment. Each compound was tested in 2 separate replicate wells for each condition. All samples were immediately collected into plates, and 50 μL of acetonitrile was added. Subsequently, 350 μl of 30:70 methanol: acetonitrile containing internal standard was added to precipitate proteins and stabilize the test compounds. To test for non-specific binding and compound instability, the total amount of the drug was quantified at the end of the experiment and compared to the material present in the original dosing solution as a percentage of the recovery. All samples were analyzed by LC-MS/MS using electrospray ionization.
(§6) The apparent permeability, Papp, and % recovery were calculated as follows: […]

The target of the next data set is T1, BCRP (Homo sapiens, UniProt Q9UNQ0).
T1 construct: host or cells: MDCK cells with canine Pgp knocked out and BCRP knocked in (cPgp-KO-BCRP-KI)
T1 sequence (Q9UNQ0 1-655): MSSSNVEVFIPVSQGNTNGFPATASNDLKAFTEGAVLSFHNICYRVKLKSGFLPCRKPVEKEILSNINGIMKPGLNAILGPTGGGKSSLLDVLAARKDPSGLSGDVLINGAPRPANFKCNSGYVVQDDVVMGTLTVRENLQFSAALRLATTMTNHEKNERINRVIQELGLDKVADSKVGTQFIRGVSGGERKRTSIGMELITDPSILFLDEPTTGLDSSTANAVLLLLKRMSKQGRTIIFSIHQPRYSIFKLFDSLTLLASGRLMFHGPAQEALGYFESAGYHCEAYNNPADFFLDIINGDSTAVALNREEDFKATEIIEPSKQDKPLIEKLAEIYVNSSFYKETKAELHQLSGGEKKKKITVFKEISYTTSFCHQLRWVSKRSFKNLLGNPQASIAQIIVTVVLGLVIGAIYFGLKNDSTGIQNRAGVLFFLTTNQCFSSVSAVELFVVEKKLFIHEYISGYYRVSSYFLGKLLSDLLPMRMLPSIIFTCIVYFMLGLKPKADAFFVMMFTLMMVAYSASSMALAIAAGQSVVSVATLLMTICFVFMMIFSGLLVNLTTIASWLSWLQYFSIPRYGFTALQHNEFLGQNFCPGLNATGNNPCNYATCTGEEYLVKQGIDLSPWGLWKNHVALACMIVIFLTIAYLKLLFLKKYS
Kind of data set: MDR1/BCRP assay: efflux ratio in cPgp-KO-BCRP-KI cells. Conditions: dog, efflux ratio Papp (B-to-A)/Papp (A-to-B), 2-hour time point, read-out: cPgp-KO-BCRP-KI (ER). The class given is in vitro ADME. On the procedure: as §5, §6

For a further data set, the target named is T2, MDR1 (Homo sapiens, UniProt P08183).
T2 construct: host or cells: MDCK cells with canine Pgp knocked out and MDR1 knocked in (cPgp-KO-MDR1-KI)
T2 sequence (P08183 whole entry): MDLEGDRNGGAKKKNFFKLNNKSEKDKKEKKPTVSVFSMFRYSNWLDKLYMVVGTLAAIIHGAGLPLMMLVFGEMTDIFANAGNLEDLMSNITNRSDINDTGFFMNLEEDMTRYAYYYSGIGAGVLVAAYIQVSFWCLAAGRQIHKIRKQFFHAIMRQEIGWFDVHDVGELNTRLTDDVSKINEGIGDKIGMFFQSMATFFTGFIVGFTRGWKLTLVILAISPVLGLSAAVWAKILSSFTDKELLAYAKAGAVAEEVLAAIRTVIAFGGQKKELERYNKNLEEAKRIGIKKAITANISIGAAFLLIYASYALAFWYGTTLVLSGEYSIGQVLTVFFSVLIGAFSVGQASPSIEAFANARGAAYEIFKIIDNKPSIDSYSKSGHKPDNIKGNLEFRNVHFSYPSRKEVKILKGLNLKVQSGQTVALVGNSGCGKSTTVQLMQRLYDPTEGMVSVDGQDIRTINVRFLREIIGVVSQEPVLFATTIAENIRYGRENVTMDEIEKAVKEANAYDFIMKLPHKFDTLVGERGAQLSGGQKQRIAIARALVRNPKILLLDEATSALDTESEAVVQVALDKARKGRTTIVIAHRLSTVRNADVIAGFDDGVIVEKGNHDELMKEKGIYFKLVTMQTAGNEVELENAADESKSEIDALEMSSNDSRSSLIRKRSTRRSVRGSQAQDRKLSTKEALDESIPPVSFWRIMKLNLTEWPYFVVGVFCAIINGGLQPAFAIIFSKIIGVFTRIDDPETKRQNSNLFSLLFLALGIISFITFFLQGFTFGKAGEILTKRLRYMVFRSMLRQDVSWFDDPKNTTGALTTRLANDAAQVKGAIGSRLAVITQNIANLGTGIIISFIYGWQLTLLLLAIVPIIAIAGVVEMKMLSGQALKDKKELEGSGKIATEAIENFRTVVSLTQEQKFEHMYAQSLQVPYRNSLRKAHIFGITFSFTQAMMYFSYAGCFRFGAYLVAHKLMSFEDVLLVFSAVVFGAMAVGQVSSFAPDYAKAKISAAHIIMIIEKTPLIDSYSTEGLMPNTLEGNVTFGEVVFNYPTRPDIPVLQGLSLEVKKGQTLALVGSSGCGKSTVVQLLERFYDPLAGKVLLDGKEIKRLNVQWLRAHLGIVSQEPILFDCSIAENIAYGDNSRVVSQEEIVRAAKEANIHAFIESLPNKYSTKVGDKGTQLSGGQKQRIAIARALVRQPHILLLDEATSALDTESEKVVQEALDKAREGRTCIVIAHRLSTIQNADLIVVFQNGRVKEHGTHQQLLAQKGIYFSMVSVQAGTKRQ
As to the kind of experiment: MDR1/BCRP assay: efflux ratio in cPgp-KO-MDR1-KI cells. The class given is in vitro ADME. To be noted: dog, MDCK-MDR1, efflux ratio Papp (B-to-A)/Papp (A-to-B), 2-hour time point, read-out: cPgp-KO-MDR1-KI (ER). On the procedure: as §5, §6

This is an account of results in patent US20250376484A1, “PRMT5 INHIBITORS AND USES THEREOF” (Gilead Sciences, Inc., priority 2024, published 2025).

What is called CC50 is the concentration that lowers cell viability or growth by half. In the case of `Nc1ncc(NC(=O)C(=O)N2CCC[C@@H]3Oc4cc(C(F)(F)F)cc(F)c4[C@@H]32)c2c1COC2` [Example Cc-2, N-(4-amino-1,3-dihydrofuro[3,4-c]pyridin-7-yl)-2-((4aS,9bS)-9-fluoro-7-(trifluoromethyl)-3,4,4a,9b-tetrahydrobenzofuro[3,2-b]pyridin-1(2H)-yl)-2-oxoacetamide], in data set [1], the CC50 came to 51 nM and the Selectivity was found to be 37. In addition, the midpoint of cytotoxicity in data set [2], the CC50 at 7 days, lay at 1910 nM.
As usually defined, the Papp A→B is the apparent permeability from the apical to the basolateral side of a cell layer. The low end stands for slow passage, the high end for fast passage. For `Cn1ncc2c(NC(=O)C(=O)N3CCC[C@@H]4Oc5cc(OC(F)F)c(F)cc5[C@@H]43)cnc(N)c21` (relative stereo) [Example Ca-9, cis-N-(7-amino-1-methyl-1H-pyrazolo[3,4-c]pyridin-4-yl)-2-(7-(difluoromethoxy)-8-fluoro-3,4,4a,9b-tetrahydrobenzofuro[3,2-b]pyridin-1(2H)-yl)-2-oxoacetamide], in data set [1], the cytotoxic concentration (CC50) is 34 nM and the Selectivity came to 119. Further, the CC50 at 7 days in data set [2] amounted to 4100 nM. Also, the apparent permeability from apical to basolateral (Papp A→B) at 2 h, 1 µM in data set [3] was 15.3 ×10⁻⁶ cm/s. Moreover, the efflux ratio at 2 h, 1 μM on BCRP turned out to be 1.6. Further, the efflux ratio at 2 h, 1 μM at MDR1 was determined as 1.8.
In the case of `C[C@@H]1C[C@@H]2Oc3nc(C(F)(F)F)ccc3[C@@H]2N(C(=O)C(=O)Nc2cnc(N)c3c2cnn3C)C1` [Example Ca-8, N-(7-amino-1-methyl-1H-pyrazolo[3,4-c]pyridin-4-yl)-2-((3R,4aS,9bS)-3-methyl-7-(trifluoromethyl)-3,4,4a,9b-tetrahydrofuro[2,3-b:4,5-b′]dipyridin-1(2H)-yl)-2-oxoacetamide], in data set [1], the CC50 came out at 13 nM and the Selectivity is listed as 93. Also, half-maximal cytotoxicity in data set [2] (CC50 at 7 days) was put at 1200 nM. Also, the Papp A→B at 2 h, 1 µM in data set [3] is 19.7 ×10⁻⁶ cm/s. The efflux ratio at 2 h, 1 μM at BCRP amounted to 9. Also, the efflux ratio at 2 h, 1 μM at MDR1 worked out at 2.5.
Turning to `Cn1ncc2c(NC(=O)C(=O)N3CCC[C@@H]4Oc5cc(C(F)(F)F)ccc5[C@@H]43)cnc(N)c21` [Example Ca-2, N-(7-amino-1-methyl-11H-pyrazolo[3,4-c]pyridin-4-yl)-2-oxo-2-((4aS,9bS)-7-(trifluoromethyl)-3,4,4a,9b-tetrahydrobenzofuro[3,2-b]pyridin-1(2H)-yl)acetamide], the CC50 in data set [1] stood at 12 nM. Also, the Selectivity in data set [1] is recorded as 78. The CC50 at 7 days in data set [2] turned out to be 935 nM. The Papp A→B at 2 h, 1 µM in data set [3] amounted to 12.2 ×10⁻⁶ cm/s. For the same compound, the values for the efflux ratio at 2 h, 1 μM at BCRP and at MDR1 were 0.7 and 0.8, respectively.
As for `Cn1ncc2c(NC(=O)C(=O)N3CCC[C@@H]4Oc5cc(OC(F)(F)F)cc(F)c5[C@@H]43)cnc(N)c21` [Example Ca-6, N-(7-amino-1-methyl-1H-pyrazolo[3,4-c]pyridin-4-yl)-2-((4aS,9bS)-9-fluoro-7-(trifluoromethoxy)-3,4,4a,9b-tetrahydrobenzofuro[3,2-b]pyridin-1(2H)-yl)-2-oxoacetamide], the CC50 in data set [1] turned out to be 13 nM. The same compound gave a Selectivity in data set [1] of 144. In data set [2], the CC50 at 7 days is 1880 nM. The same compound registered a Papp A→B at 2 h, 1 µM in data set [3] of 9.3 ×10⁻⁶ cm/s. The efflux ratio at 2 h, 1 μM at BCRP stood at 2.6; at MDR1, 0.9.
On to `[2H]C([2H])([2H])n1ncc2c(NC(=O)C(=O)N3CCC[C@@H]4Oc5cc(C(F)(F)F)cc(F)c5[C@@H]43)cnc(N)c21` [Example Cb-1, N-(7-amino-1-(methyl-d3)-1H-pyrazolo[3,4-c]pyridin-4-yl)-2-((4aS,9bS)-9-fluoro-7-(trifluoromethyl)-3,4,4a,9b-tetrahydrobenzofuro[3,2-b]pyridin-1(2H)-yl)-2-oxoacetamide], for which, in data set [1], the CC50 was 12 nM and the Selectivity was found to be 99. The same compound returned a CC50 at 7 days in data set [2] of 1240 nM.
Turning to `Cn1ncc2c(NC(=O)C(=O)N3CC[C@H]4C[C@@H]3c3ccc(OC(F)(F)F)cc3O4)cnc(N)c21` [Example Ca-4, N-(7-amino-1-methyl-1H-pyrazolo[3,4-c]pyridin-4-yl)-2-oxo-2-((2S,6R)-9-(trifluoromethoxy)-3,4-dihydro-2H-2,6-methanobenzo[b][1,5]oxazocin-5(6H)-yl)acetamide], in data set [1], the CC50 is 31 nM and the Selectivity came out at 102. The compound further displayed a CC50 at 7 days in data set [2] of 3200 nM. Moreover, the Papp A→B at 2 h, 1 µM in data set [3] was 26 ×10⁻⁶ cm/s. Also, the efflux ratio at 2 h, 1 μM at BCRP is 0.6. In addition, on MDR1, the efflux ratio at 2 h, 1 μM is 0.9.
For `Cn1ncc2c(NC(=O)C(=O)N3CCC[C@@H]4Oc5cc(Cl)ccc5[C@@H]43)cnc(N)c21` [Example Ca-7, N-(7-amino-1-methyl-1H-pyrazolo[3,4-c]pyridin-4-yl)-2-((4aS,9bS)-7-chloro-3,4,4a,9b-tetrahydrobenzofuro[3,2-b]pyridin-1(2H)-yl)-2-oxoacetamide], in data set [1], the CC50 turned out to be 16 nM and the Selectivity was 108. In data set [2], this compound gave a CC50 at 7 days of 1700 nM. For the same compound, in data set [3], the Papp A→B at 2 h, 1 µM was found to be 21.4 ×10⁻⁶ cm/s. Also, the efflux ratio at 2 h, 1 μM on BCRP is 1.1.
For `Cn1ncc2c(NC(=O)C(=O)N3CC4(CC4)C[C@@H]4Oc5cc(C(F)(F)F)ccc5[C@@H]43)cnc(N)c21` [Example Ca-5, N-(7-amino-1-methyl-1H-pyrazolo[3,4-c]pyridin-4-yl)-2-oxo-2-((4aS,9bS)-7-(trifluoromethyl)-4a,9b-dihydro-2H-spiro[benzofuro[3,2-b]pyridine-3,1′-cyclopropan]-1(4H)-yl)acetamide], in data set [1], the 50% cytotoxic concentration (CC50) was 8 nM and the Selectivity was determined as 73. In data set [2], this compound yielded a CC50 at 7 days of 589 nM. In addition, the Papp A→B at 2 h, 1 µM in data set [3] was determined as 11.6 ×10⁻⁶ cm/s. At BCRP, the efflux ratio at 2 h, 1 μM turned out to be 0.44. The efflux ratio at 2 h, 1 μM on MDR1 was 0.99.
With `Nc1ncc(NC(=O)C(=O)N2CCC[C@@H]3Oc4cc(C(F)(F)F)ccc4[C@@H]32)c2c1COC2` [Example Cc-1, N-(4-amino-1,3-dihydrofuro[3,4-c]pyridin-7-yl)-2-oxo-2-((4aS,9bS)-7-(trifluoromethyl)-3,4,4a,9b-tetrahydrobenzofuro[3,2-b]pyridin-1(2H)-yl)acetamide], in data set [1], the CC50 amounted to 50 nM and the Selectivity was 38. This compound showed a CC50 at 7 days in data set [2] of 1940 nM.
